Measured values taken from patent US20260000781A1, “FC CONJUGATES INCLUDING AN INHIBITOR OF CD73 AND USES THEREOF” (Cidara Therapeutics, Inc., priority 2022, published 2026).
pEC50, pIC50: −log10 of the molar value. Like-named read-outs stand apart in the source and are kept apart here.

Experiments:
Assay type in all cases: cell-based
CD73 on 4T1 mouse cells = molecular target: T1, CD73 on 4T1 mouse cells (Mus musculus, UniProt Q61503); test: CD73 enzyme inhibition assay with mouse 4T1 cells (PiColorLock); details: 4T1 cancer cells, AMP 100 μM
T1 construct: host or cells: 4T1
T1 sequence (Q61503 29-551): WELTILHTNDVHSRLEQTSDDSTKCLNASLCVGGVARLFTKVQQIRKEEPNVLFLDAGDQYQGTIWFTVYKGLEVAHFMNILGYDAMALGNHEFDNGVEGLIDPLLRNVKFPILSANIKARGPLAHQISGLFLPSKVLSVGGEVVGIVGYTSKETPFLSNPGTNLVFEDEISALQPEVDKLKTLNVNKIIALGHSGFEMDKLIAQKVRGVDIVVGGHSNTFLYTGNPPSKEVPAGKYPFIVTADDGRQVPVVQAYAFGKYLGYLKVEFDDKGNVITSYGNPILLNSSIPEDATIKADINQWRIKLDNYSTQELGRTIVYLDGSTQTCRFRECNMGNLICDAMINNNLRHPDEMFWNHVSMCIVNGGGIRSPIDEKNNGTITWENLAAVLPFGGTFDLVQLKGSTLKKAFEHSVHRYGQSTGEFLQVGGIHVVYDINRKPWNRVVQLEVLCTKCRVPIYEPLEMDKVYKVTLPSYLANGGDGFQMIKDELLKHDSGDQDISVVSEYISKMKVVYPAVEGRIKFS
Method: The cell-based CD73 enzyme inhibition assay was performed in a 96-well plate format using the PiColorLock phosphate assay kit in accordance with the manufacturer's instructions (Abcam cat no. 270004). 4T1 mouse cells are a model for stage IV human breast cancer (ATCC CRL-2539) and human peripheral blood mononuclear cells (PBMCs; StemCell Technologies cat no. 70025) from three different donors were assayed. 4T1 cells were washed three times with a phosphate-free CD73 buffer (Lawson et al., 2020), detached from tissue-culture flasks using a cell scraper, and seeded at 5×10^3 cells/well into 96-well tissue culture-treated plates. Human PBMCs were washed three times with phosphate-free CD73 buffer at 125×g for 10 min at room temperature and seeded at 1×10^5 cells/well into 96-well tissue culture-treated plates. Test articles were tested from 0.001 nM to 1,000 nM (4T1 cells) or 0.0001 nM to 100 nM (PBMCs) and incubated with cells for 30 min at 37° C., 5% CO2. AMP (100 μM final concentration) was added to cells and test articles, and the reaction incubated for 3 h and 24 h at 37° C., 5% CO2. The conversion of AMP to adenosine and phosphate in cell-free supernatant was quantified using the PiColorLock kit. Colorimetric detection reagent was added and the phosphate production was measured by reading the absorbance at 635 nm with the EnSpire multimode plate reader (PerkinElmer). Cells without test article (positive control) were included on each plate. Control wells without test article and cells (background) were subtracted from all wells. Percent CD73 inhibition versus inhibitor concentration was plotted using GraphPad Prism Version 8 and IC50's calculated using nonlinear regression analysis (Sigmoidal, 4 PL).

[1] = system: adenosine production by human PBMCs; test: PBMC activation assay, AMP conversion by CellTiter-Glo; details: 30 μM AMP, 72 h
Method: Human PBMCs (StemCell Technologies cat no. 70025) prepared in ImmunoCult™—XF T cell Expansion medium (StemCell Technologies cat no. 10981) were seeded at 1×10^5 cells per well (100 μL of 1×10^6 cells/mL) in the presence or absence of T cell activator anti-CD3/CD28/CD2 (StemCell Technologies cat no. 10970) in 96 well round bottom plates (Corning cat no. 3788). Ten-fold serial dilutions of each test article was prepared in medium (ranging from 4,000 nM-0.4 nM), resulting in final concentrations ranging from 1,000 nM-0.1 nM. 50 μL of test article was added to the cells, followed by 50 μL of adenosine 5′ monophosphate (AMP; MilliporeSigma cat no. A1752) for a final concentration of 30 μM. Plates were incubated at 37° C. with 5% CO2 for 72 h. After 72 h the cells were centrifuged for 5 min at 300×g at 4° C. and the supernatant was reserved for analysis of AMP conversion using CellTiter-Glo (Promega cat no. G7571).
25 μL of reserved supernatant was transferred to a white 96-well plate (Corning cat no. 3917) and combined with 25 μL of a 1 μM adenosine 5′ triphosphate (ATP; MilliporeSigma cat no. A7699) solution. 50 μL of CellTiter-Glo reagent was added, and the plate incubated for 10 min at room temperature. Luminescence was measured using an EnSpire plate reader (PerkinElmer). […]

CD73 on MDA-MB-231 cells = molecular target: T2, CD73 on MDA-MB-231 cells (Homo sapiens, UniProt P21589); test: CD73 internalization assay (Fab-ZAP)
T2 construct: host or cells: MDA-MB-231
T2 sequence (P21589 27-549): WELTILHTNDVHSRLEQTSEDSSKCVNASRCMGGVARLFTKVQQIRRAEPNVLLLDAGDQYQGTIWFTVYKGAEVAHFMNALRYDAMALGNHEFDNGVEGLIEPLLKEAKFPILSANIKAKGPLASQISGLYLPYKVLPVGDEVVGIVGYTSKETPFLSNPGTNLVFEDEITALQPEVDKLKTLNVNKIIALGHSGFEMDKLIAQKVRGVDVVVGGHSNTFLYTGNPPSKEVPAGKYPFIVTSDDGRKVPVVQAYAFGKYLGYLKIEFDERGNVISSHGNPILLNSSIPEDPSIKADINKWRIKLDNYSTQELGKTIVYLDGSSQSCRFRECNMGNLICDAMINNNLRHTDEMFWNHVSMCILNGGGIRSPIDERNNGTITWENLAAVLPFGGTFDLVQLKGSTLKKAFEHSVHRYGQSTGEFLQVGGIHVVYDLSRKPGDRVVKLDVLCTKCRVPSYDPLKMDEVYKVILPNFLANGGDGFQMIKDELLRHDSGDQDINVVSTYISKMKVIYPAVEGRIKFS
Method: Cells were plated into white tissue culture-treated 96 well plates (Corning cat no. 3917) at 5×10^3 to 1×10^4 cells/well in 100 μL in RPMI (Gibco cat no. 11875093)+10% FBS (Gibco cat no. 16140071) and incubated overnight at 37° C. with 5% CO2. Serial dilutions of test article (TA) from 0.00002 nM-200 nM (2× final concentration) were pre-incubated with 100 nM Fab-ZAP reagent (2× final concentration) for 30 min at room temperature. Cells were washed once with 150 μL/well 1×PBS (Gibco cat no. 10010023), followed by the addition of 50 μL/well of media and 50 μL/well TA/Fab-ZAP mix. Cells were then incubated for 72 h at 37° C. with 5% CO2 and viability was determined after 72 h via the CellTiter-Glo assay (Promega cat no. G7570) following the manufacturer's instructions. Cell viability RLU versus log10 nM drug concentration was plotted using GraphPad Prism. The % CD73 internalization was calculated using the following formula: % CD73 internalization=[1−RLU (sample)/RLU (untreated cells)]×100%. The EC50's for each TA was calculated using the 4 PL non-linear regression analysis in GraphPad Prism software.
Cells were plated into white tissue culture-treated 96 well plates (Corning cat no. 3917) at 2×10^3 cells/well in 100 μL in RPMI (Gibco cat no. 11875093)+10% FBS (Gibco cat no. 16140071) and incubated overnight at 37° C. with 5% CO2. Serial dilutions of test article (TA) from 0.06 nM-20 nM (2× final concentration) were pre-incubated with 100 nM Fab-ZAP reagent (2× final concentration) for 30 min at room temperature. […] Cells were then incubated for 96 h at 37° C. with 5% CO2 and viability was determined after 96 h via the CellTiter-Glo assay (Promega cat no. G7570) following the manufacturer's instructions. […] The % CD73 internalization was calculated using the following formula: % CD73 internalization=[1−RLU (sample)/RLU (untreated cells)]×100%. The EC50's for each TA was calculated using the 4 PL non-linear regression analysis in GraphPad Prism software.

pIC50 (CD73 on 4T1 mouse cells; 24 h, read-out: 24 h IC50) | IC50 (CD73 on 4T1 mouse cells; 3 h IC50 [nM], 3 h) [nM] | pIC50 (CD73 on 4T1 mouse cells; read-out: 3 h IC50, 3 h) | Cell internalization EC50 (nM) (CD73 on MDA-MB-231 cells; 72 h (Table 11)) | Cell internalization EC50 (nM) (CD73 on MDA-MB-231 cells; 96 h (Table 23)) | Structure (SMILES) | pEC50 ([1]; Homo sapiens, PBMC) | pEC50 [1]
7.07 | 6.79 |  |  |  | C[C@H](Nc1cc(Cl)nc2c1cnn2[C@@H]1O[C@H](COP(=O)(O)CP(=O)(O)O)[C@@H](O)[C@H]1O)c1ccccc1F [AB680] | 8.30 | 
 |  |  |  |  | COC[C@](CO)(OC[C@H]1O[C@@H](n2ncc3c(NC4CCCC4)nc(Cl)nc32)[C@H](O)[C@@H]1O)P(=O)(O)O [OP5244] |  | 9.00
7.62 |  | 8.78 | did not induce receptor internalization | No activity | COC[C@](CO)(OC[C@H]1O[C@@H](n2ncc3c(NC4CCCC4)nc(Cl)nc32)[C@H](O)[C@@H]1O)P(=O)(O)O [OP-5244] |  | 
6.94 |  | 8.09 | did not induce receptor internalization |  | O=P(O)(O)COC[C@H]1O[C@@H](n2ncc3c(N4CC5(CCc6ccccc65)C4)nc(Cl)nc32)[C@H](O)[C@@H]1O [SHR170008] |  | 
